Data taken from US20250154161A1, “CRYSTAL FORMS OF THIENOIMIDAZOLE COMPOUND AND PREPARATION METHOD THEREOF” (HANGZHOU SCIWIND BIOSCIENCES CO., LTD., priority 2021, published 2025).

Key:
[1] = Study on DMPK in rats (oral, single administration); type: in vivo; settings: rat, male SD rats, oral 5 mg/kg, plasma
Method: Male SD rats were used as test animals. After single administration, the plasma concentration of the compound was measured, and the pharmacokinetic behavior was evaluated.
Two healthy adult male SD rats were selected as the oral group. In the oral group, the vehicle was 20% PEG400/10% solutol/70% water; after the compound to be tested was mixed with the vehicle, 0.5 mg/mL clear solution was prepared by vortex and ultrasound. After oral administration at 5 mg/kg, the whole blood of rat was collected for a certain period of time to prepare plasma; then the drug concentration was analyzed by LC-MS/MS method, and the pharmacokinetic parameters were calculated by Phoenix WinNonlin software (Pharsight, USA).

GLP-1 receptor = biological target: T1, GLP-1 receptor (Homo sapiens, UniProt P43220); assay: Detection of cell viability in vitro (cAMP detection in GLP-1 cells); type: cell-based
T1 construct: host or cells: 'GLP-1 cell' constructed cell strain
T1 sequence (P43220 24-463): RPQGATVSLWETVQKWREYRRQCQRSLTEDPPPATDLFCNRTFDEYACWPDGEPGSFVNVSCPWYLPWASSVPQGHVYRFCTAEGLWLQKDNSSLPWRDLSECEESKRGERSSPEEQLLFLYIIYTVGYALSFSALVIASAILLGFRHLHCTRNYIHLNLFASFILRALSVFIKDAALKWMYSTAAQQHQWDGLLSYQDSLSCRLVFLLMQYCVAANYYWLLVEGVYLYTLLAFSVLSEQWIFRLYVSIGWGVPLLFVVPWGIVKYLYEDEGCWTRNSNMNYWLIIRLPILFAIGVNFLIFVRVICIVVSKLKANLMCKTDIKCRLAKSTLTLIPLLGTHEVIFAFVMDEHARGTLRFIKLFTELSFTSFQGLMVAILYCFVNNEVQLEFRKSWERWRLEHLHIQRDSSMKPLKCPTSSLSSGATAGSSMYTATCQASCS
Method: OptiPlate-384, White, PerkinElmer (Cat #6007290); 384 well plate for Echo, Labcyte (Cat #P-05525); EnVision, PerkinElmer; Vi-cell counter, Beckman (Cat # Vi-CELL™ XR Cell Viability Analyzer)
The compound was prepared to a working concentration of […] with DMSO. In this test, the use amount of each sample is 5 μL.
Preparation of cAMP detection reagent: 250 μL cAMP-D2, and 250 μL anti-cAMP cryptate reagent were added to 4 mL lysis buffer, then mixing well gently.
The compound to be tested was diluted 3 times at 10 points, the initial concentration was 30 M; and the dilution was completed by Bravo plateform. […]
• 1) A GLP-1 cell cryopreservation tube was quickly thawed in warm water at 37° C. 2) The cell suspension was transferred to a 15 mL Transfer centrifuge tube, then gently rinsing with 10 mL HBSS. • 3) The centrifuge tube was centrifuged at room temperature and 1000 rpm for 1 min. • 4) The supernatant was discarded. • 5) The cells at the bottom were gently dispersed and washed with 10 mL HBSS, then centrifuging to obtain cell sediment, and resuspending the cells with experimental buffer. • 6) Cell density and viability were measured by Vi-cell counter. • 7) GLP-1 cells were diluted with experimental buffer to a concentration of 2.0*10^5/mL. • 8) 100 nL of diluted cell suspension was transferred into OptiPlate-384 plate. • 9) The cells were incubated at room temperature for 30 min. […]

[2] = Study on DMPK in cynomolgus monkeys (oral, single administration); type: in vivo; settings: cynomolgus monkey, male cynomolgus monkeys, oral 20 mg/kg, plasma
Method: Male cynomolgus monkeys were used as test animals. After single administration, the plasma concentration of the compound was measured, and the pharmacokinetic behavior was evaluated.
Two healthy male cynomolgus monkeys were selected as a group. In the oral group, the vehicle was 20% HP-β-CD aqueous solution; after the compound to be tested was mixed with the vehicle, 4 mg/mL approximately clear solution was prepared by vortex and ultrasound. After oral administration at 20 mg/kg, the whole blood of cynomolgus monkey was collected for a certain period of time to prepare plasma; then the drug concentration was analyzed by LC-MS/MS method, and the pharmacokinetic parameters were calculated by Phoenix WinNonlin software (Pharsight, USA).

[3] = Dynamic vapor sorption (DVS) hygroscopicity study of the crystal forms; type: physicochemical
Method: The dynamic vapor sorption (DVS) curve is collected on the DVS Intrinsic plus by SMS (surface measurement systems). The relative humidity at 25° C. is corrected by the deliquescence point of lithium chloride (LiCl), magnesium nitrate [Mg(NO3)2] and potassium chloride (KCl).
The test parameters are as follows:
The hygroscopicity evaluation is classified as follows:
The specific results are shown as the DVS spectrums in FIGS. 27-29.

[4] = Crystal form change after drying the sample open at room temperature overnight; type: physicochemical
Method: About 15 mg of crystal Form A of formula (II-1) compound was weighed to add into a 3 mL vial, then adding 1.0 mL MeOH/MTBE (1:1, v/v), stirring at 50° C. for equilibrating about 1 hour, and then filtering to obtain the supernatant.
About 15 mg of crystal Form A of formula (II-1) compound was weighed to add into a 20 mL vial, then dissolving the solids completely with 0.2-1.0 mL MeOH (filtering out the undissolved sample by 0.45 m PTFE filter to obtain clear solution).

[5] = Solid stability of crystal forms under accelerated conditions, XRPD detection; type: physicochemical; settings: for Crystal form: 75% RH, open, XRPD detection
[6] = read-out: F % (oral bioavailability)

Work on `O=C(O)c1cc2c(nc(CN3CC=C(c4cccc(OCc5ccc(Cl)cc5F)n4)CC3)n2C[C@@H]2CCO2)s1` [compound of formula (I)] yielded a Cmax [1] of 85.5 nM, an AUC(0-t) ([1]; 24-hour oral exposure) of 0.234 µM·h and a bioavailability [1, 6] of 6.6%. For the same compound, the EC50 (GLP-1 receptor; GLP-1 target in HEK293 host cell, cAMP detection, read-out: Human-GLP1, EC50) was 0.37 nM, the “ability to stimulate GLP-1 receptor” value (GLP-1 receptor; cAMP, GLP-1 cells) was “better ability to stimulate GLP-1 receptor” and the Cmax [2] was 1420 nM. For the same compound, the AUC(0-t) ([2]; 24-hour oral exposure) was 12.8 µM·h and the bioavailability [2, 6] was 22.1%.
In the case of `O=C(O)c1cc2c(nc(CN3CC=C(c4cccc(OCc5ccc(Cl)cc5F)n4)CC3)n2C[C@@H]2CCO2)s1` [crystal Form A], the “crystal form before and after adsorption and desorption” value [3] is reported as “changes” and the hygroscopic weight gain ([3]; 25° C. and 80% RH) is reported as 2.20%.
For `O=C(O)c1cc2c(nc(CN3CC=C(c4cccc(OCc5ccc(Cl)cc5F)n4)CC3)n2C[C@@H]2CCO2)s1` [crystal Form B], the “crystal form after drying open at room temperature overnight” value [4] was “transformed into crystal Form E”.
For `O=C(O)c1cc2c(nc(CN3CC=C(c4cccc(OCc5ccc(Cl)cc5F)n4)CC3)n2C[C@@H]2CCO2)s1` [crystal Form E], the Crystal form ([5]; 40° C., Day 5) was “crystal Form E”, the Crystal form ([5]; 40° C., Day 15) was “crystal Form E” and the Crystal form ([5]; 40° C., Month 1) was “crystal Form E”. For the same compound, the Crystal form ([5]; 40° C., Month 2) was “crystal Form E”, the Crystal form ([5]; 60° C., Day 5) was “crystal Form E” and the Crystal form ([5]; 60° C., Day 15) was “crystal Form E”. For the same compound, the Crystal form ([5]; 60° C., Month 1) was “crystal Form E”, the Crystal form ([5]; 60° C., Month 2) was “crystal Form E” and the “solid stability (conclusion)” value ([5]; fully exposed, 40° C./75% RH and 60° C./75% RH, XRPD compared with day 0) was “good stability”.
